# Non-standard residues stand in square brackets, D forms with d. Residues, ends and D or L forms follow the SMILES beside them. Nle = CCCC[C@H](N)C(=O)O
# Tested on: RelB
# Test: RelB, IKKα, NIK and RelA/p65 levels by western blotting in CSE-treated Ramos B-cells
# Type: cell-based, human
# Conditions: B-cells pretreated with ALLN 25 μM for 20 min, then CSE 0.5% and 1.0% for 1 h; whole cell lysates, immunoblotting
# Method: MonoMac6-, Ramos B- and WEHI-231-cells were seeded at a density of less than 1×10^6 cells/well (total final volume=2 ml), grown to ˜80-90% confluency in six-well plates containing RPMI 1640 medium with 10% FBS, washed in Ca2+- and Mg2+-free PBS, and then exposed to various treatments in media containing 1% serum. All treatments were performed in duplicate. The cells were treated with CSE (0.5, 1.0 and 5%) for 1 h at 37° C. with 7.5% CO2. At the end of treatment, the cells were washed with cold, sterile Ca2+- and Mg2+-free PBS and were lysed in RIPA buffer as whole lysate (western blotting), and the lysates stored at −80° C. […]
# Lung tissue homogenate samples (cytoplasmic and nuclear proteins) were separated on a 7.5%-12% SDS-PAGE. […] The next day, membranes were washed and incubated for 1 h at room temperature with the appropriate secondary antibody linked to horseradish peroxidase (Dako, Santa Barbara, Calif.), bound complexes were detected with the use of the enhanced chemiluminescence method (Jackson Immunology Research, West Grove, Pa.).
structure (smiles),measurement,value
CCCC[C@@H](C=O)NC(=O)[C@H](CC(C)C)NC(=O)[C@H](CC(C)C)NC(C)=O [ALLN] (Ac-Leu-Leu-[Nle]-aldehyde),degradation of RelB in response to CSE,prevented the degradation of RelB
